The text below walks through data of ChEMBL document CHEMBL5465560, “Selectivity Literature for EUbOPEN Chemogenomic Library” (2024).

The structures appear in SMILES notation.

The target of test [1] is T1, Serine/threonine-protein kinase 3 (Homo sapiens) (UniProt Q13188).
T1 sequence (whole entry): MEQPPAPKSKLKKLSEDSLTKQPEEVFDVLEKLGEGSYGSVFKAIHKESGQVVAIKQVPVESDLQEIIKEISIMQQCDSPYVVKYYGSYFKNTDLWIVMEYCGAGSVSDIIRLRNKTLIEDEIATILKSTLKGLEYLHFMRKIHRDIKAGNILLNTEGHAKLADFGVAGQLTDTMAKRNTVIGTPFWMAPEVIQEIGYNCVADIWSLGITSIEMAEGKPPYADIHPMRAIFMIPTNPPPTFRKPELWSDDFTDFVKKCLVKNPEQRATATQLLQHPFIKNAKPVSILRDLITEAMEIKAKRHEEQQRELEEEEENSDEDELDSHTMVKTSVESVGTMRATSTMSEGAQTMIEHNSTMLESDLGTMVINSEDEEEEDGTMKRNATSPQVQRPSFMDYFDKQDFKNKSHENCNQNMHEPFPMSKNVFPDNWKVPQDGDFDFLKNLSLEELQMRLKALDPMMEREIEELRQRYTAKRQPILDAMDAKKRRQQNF
Particulars: at 10 µM.

In test [2] the target is Tyrosine-protein kinase Lyn (Homo sapiens, UniProt P07948). Put plainly: Selectivity interaction (KinomeScan (DiscoverX)) EUB0001079a LYN. Particulars: at 1 µM.
For test [3], the target named is Calcium/calmodulin-dependent protein kinase kinase 1 (Homo sapiens) (UniProt Q8N5S9). As to the kind of experiment: Selectivity interaction (KinomeScan (DiscoverX)) EUB0000655a CAMKK1. Conditions: at 10 µM.
Test [4] deals with Mitogen-activated protein kinase kinase kinase 11 (Homo sapiens) (UniProt Q16584). As to the kind of experiment: Selectivity interaction (KinomeScan (DiscoverX)) EUB0000695a MAP3K11. Particulars: at 100 nM.
Test [5] deals with T2, Serine/threonine-protein kinase Nek11 (Homo sapiens) (UniProt Q8NG66).
T2 sequence (whole entry): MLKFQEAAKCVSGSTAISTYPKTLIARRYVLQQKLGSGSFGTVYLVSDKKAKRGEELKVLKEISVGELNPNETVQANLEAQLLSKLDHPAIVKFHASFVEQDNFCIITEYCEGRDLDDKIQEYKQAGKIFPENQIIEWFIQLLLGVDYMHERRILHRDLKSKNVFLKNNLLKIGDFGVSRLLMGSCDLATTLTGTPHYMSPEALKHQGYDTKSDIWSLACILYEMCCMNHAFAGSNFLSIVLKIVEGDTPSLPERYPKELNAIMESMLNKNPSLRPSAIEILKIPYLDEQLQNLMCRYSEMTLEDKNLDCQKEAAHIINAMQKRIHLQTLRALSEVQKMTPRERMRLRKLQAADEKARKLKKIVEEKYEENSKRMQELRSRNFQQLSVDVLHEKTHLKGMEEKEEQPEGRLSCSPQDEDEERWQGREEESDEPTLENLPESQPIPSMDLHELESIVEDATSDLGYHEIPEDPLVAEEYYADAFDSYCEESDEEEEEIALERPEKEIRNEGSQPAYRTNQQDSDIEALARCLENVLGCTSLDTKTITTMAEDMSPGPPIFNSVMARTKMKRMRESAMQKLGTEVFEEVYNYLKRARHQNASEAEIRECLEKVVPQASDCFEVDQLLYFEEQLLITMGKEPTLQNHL
As to the kind of experiment: Selectivity interaction (KinomeScan (DiscoverX)) EUB0000666a NEK11. Conditions: at 10 µM.

Test [6] has as its target Vascular endothelial growth factor receptor 3 (Homo sapiens, UniProt P35916). As to the kind of experiment: Selectivity interaction (Kinase panel (Z-LYTE Assay)) EUB0001632a FLT4. Particulars: at 10 µM.
Test [7] addresses T3, Aurora kinase A (Homo sapiens) (UniProt O14965).
T3 sequence (whole entry): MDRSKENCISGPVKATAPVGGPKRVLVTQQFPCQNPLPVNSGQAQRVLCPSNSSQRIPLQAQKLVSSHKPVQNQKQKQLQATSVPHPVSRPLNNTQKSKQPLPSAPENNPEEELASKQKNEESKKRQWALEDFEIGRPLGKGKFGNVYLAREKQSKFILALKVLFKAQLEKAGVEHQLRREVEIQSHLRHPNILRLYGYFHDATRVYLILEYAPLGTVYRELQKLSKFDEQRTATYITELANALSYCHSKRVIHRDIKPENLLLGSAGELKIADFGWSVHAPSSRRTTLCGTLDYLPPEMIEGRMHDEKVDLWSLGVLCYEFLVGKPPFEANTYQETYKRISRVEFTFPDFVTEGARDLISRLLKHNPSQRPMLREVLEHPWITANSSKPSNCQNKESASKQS
Put plainly: Selectivity interaction (SelectScreen profiling (Invitrogen)) EUB0000607a STK6. Conditions: at 2 µM.

Test [8] addresses Interferon-induced, double-stranded RNA-activated protein kinase (Homo sapiens) (UniProt P19525). Put plainly: Selectivity interaction (ActivX KiNativ screen (kinase selectivity in THP-1 cell lysates)) EUB0000639a EIF2AK2. Format: subcellular. Particulars: lysate, at 5 µM.
In test [9] the target is T4, Inhibitor of nuclear factor kappa-B kinase subunit alpha (Homo sapiens) (UniProt O15111).
T4 sequence (whole entry): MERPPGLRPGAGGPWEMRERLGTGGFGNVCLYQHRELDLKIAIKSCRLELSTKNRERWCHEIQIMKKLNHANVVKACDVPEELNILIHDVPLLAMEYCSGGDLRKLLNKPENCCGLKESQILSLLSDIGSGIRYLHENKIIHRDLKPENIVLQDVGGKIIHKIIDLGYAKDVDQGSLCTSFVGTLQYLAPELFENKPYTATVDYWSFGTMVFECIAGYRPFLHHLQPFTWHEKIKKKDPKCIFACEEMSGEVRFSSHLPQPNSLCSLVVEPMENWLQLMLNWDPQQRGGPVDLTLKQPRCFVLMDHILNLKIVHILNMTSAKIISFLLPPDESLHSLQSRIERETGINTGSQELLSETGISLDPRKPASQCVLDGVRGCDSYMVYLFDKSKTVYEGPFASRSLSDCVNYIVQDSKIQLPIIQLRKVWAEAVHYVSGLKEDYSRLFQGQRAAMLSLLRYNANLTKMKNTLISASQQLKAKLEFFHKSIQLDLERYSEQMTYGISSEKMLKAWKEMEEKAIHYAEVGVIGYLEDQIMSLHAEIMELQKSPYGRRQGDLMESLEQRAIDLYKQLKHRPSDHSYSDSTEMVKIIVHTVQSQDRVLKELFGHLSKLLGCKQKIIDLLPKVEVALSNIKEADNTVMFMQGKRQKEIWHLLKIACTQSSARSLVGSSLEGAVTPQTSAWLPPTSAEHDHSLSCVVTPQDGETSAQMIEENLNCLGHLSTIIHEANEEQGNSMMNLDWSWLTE
As to the kind of experiment: Selectivity interaction (ActivX KiNativ screen (kinase selectivity in THP-1 cell lysates)) EUB0000639a CHUK. Format: subcellular. Conditions: lysate.

The target in test [10] is Serine/threonine-protein kinase 26 (Homo sapiens, UniProt Q9P289). Particulars: at 1 µM.
Serine/threonine-protein kinase 26, sequence (Q9P289 2-416 limits assumed): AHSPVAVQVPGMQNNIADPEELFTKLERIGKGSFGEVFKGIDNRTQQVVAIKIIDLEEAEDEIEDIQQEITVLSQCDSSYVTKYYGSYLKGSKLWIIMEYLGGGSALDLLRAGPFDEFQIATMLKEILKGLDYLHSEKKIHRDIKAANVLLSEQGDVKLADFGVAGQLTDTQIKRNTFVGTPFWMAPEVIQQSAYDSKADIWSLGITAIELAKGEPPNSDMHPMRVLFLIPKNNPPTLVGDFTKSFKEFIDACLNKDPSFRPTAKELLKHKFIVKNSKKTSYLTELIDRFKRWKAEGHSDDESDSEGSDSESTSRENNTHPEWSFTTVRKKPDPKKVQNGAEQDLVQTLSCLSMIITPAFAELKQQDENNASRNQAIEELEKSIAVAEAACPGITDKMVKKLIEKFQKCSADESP

Mitogen-activated protein kinase kinase kinase 11 (Homo sapiens), sequence (Q16584 whole entry, looked up): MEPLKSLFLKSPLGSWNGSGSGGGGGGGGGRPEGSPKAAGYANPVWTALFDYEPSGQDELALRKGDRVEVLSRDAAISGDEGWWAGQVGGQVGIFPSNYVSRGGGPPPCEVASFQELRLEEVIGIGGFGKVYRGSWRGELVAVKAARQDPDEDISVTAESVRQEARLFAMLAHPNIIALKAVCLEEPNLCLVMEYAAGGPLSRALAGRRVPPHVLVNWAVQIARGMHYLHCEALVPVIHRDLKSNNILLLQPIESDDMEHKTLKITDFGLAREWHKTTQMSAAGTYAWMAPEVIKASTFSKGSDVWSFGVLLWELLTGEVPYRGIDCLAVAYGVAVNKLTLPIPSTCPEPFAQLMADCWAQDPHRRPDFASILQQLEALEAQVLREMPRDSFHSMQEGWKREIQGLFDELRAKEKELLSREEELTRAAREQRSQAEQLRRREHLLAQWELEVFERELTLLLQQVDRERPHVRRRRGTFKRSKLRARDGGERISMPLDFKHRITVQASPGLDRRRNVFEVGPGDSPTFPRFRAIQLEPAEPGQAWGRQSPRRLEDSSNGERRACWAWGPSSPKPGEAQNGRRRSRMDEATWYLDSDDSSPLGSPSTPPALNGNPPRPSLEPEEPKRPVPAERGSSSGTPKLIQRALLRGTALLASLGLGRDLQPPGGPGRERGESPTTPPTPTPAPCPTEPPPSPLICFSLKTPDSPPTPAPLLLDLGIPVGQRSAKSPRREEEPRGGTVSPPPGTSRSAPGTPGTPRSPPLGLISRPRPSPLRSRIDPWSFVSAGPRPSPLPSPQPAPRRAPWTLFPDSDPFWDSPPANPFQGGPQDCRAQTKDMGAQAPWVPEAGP
Interferon-induced, double-stranded RNA-activated protein kinase (Homo sapiens), sequence (P19525 whole entry): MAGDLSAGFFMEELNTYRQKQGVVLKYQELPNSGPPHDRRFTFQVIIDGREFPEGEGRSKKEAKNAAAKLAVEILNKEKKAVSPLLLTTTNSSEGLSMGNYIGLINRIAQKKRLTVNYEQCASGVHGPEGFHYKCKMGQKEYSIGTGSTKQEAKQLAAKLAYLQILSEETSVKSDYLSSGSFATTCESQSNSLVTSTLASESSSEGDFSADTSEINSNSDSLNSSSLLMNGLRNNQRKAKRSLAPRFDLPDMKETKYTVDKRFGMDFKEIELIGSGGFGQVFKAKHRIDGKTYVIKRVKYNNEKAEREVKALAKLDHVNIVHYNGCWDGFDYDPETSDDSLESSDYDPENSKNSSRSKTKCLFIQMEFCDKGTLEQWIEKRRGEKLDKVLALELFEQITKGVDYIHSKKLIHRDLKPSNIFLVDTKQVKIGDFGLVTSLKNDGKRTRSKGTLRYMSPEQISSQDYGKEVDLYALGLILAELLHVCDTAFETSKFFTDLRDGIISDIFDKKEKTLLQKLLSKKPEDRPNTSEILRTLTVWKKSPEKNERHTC
Calcium/calmodulin-dependent protein kinase kinase 1 (Homo sapiens), sequence (Q8N5S9 whole entry, looked up): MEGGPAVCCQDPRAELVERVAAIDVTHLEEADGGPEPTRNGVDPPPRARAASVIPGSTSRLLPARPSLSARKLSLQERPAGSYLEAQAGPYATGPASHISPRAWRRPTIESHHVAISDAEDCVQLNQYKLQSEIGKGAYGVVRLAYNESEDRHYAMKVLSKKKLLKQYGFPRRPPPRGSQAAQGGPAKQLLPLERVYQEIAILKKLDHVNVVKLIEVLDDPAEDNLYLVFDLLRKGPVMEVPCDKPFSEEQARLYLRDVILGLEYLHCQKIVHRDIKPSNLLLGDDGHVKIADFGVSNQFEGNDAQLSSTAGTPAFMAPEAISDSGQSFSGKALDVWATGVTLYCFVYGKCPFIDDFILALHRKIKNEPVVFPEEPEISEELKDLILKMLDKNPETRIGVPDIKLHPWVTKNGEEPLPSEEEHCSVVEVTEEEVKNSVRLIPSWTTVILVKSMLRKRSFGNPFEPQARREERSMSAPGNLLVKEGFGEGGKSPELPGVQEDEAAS
Vascular endothelial growth factor receptor 3, sequence (P35916 whole entry): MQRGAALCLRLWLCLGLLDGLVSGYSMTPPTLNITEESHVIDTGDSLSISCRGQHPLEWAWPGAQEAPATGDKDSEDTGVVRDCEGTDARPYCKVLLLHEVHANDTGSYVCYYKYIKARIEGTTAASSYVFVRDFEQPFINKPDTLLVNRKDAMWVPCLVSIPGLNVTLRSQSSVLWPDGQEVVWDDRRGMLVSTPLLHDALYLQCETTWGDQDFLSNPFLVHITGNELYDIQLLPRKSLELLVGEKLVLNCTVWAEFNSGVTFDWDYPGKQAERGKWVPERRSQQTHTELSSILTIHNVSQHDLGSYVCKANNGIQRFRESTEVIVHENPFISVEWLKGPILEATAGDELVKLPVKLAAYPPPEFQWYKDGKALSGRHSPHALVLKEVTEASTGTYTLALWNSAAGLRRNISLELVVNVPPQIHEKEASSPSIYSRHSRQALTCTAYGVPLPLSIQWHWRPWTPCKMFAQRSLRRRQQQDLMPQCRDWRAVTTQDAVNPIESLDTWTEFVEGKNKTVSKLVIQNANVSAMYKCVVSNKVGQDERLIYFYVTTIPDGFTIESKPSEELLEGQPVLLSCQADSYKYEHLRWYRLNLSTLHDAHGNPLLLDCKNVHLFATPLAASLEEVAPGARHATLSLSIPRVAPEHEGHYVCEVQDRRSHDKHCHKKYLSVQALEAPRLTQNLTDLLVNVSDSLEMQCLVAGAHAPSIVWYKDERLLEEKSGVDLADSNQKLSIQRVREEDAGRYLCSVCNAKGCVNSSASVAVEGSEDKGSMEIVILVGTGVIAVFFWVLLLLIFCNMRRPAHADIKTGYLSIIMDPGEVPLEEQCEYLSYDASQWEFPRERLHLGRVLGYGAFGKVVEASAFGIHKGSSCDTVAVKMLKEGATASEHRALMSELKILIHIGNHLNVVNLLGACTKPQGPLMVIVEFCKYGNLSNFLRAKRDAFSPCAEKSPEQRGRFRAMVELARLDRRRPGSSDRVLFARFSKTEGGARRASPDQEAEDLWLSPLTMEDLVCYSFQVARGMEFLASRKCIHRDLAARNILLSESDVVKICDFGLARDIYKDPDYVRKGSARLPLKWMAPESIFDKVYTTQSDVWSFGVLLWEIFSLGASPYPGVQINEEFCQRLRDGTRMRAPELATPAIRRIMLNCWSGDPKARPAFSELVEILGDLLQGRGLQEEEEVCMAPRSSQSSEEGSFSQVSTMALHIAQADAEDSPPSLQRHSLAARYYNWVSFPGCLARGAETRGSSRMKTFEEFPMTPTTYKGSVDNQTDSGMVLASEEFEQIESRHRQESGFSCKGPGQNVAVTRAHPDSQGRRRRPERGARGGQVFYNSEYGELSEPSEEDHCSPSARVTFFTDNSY
Tyrosine-protein kinase Lyn, sequence (P07948 2-512 limits assumed): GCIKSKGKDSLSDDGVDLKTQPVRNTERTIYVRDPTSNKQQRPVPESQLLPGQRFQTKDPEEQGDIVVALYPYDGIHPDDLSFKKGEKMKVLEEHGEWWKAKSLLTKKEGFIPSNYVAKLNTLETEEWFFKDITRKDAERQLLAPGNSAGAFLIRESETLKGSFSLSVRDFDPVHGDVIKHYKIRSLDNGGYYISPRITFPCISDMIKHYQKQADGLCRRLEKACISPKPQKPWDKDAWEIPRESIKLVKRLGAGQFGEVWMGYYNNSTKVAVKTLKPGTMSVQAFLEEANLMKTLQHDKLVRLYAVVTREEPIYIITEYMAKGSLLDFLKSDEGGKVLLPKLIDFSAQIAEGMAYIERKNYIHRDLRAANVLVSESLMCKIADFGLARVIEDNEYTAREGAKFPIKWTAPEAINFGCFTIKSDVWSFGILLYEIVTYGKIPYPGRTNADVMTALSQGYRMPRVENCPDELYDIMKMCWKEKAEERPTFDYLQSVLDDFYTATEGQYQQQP

Compound `Cc1cc([C@@H](C)Nc2ccccc2C(=O)O)c2nc(N3CCOCC3)cc(=O)n2c1` [AZD-6482] showed a % of control in [1] of 66%.
With `Nc1cnc(N2CCc3cc(S(=O)(=O)Nc4c(F)cc(Cl)cc4F)cc(N4CCCC4=O)c32)nc1` [TP-020n], the % of control in test [2] turned out to be 88%.
In the case of `CN(C)CCOc1ccc(-c2nc(-c3ccncc3)c(-c3ccc4c(c3)CC/C4=N\O)[nH]2)cc1`, the % of control in test [3] came to 99%.
Compound `Cc1cc(F)c(C(=O)Nc2cccc(-c3nncn3C(C)C)n2)cc1-n1cnc(C2CC2)c1` came in with a % of control in [4] of 79%.
`O=C(NOC[C@H](O)CO)c1ccc(F)c(F)c1Nc1ccc(I)cc1F` came in with a % of control in test [5] of 91%.
As to `Cn1cc(-n2cnc3c(NCc4nc5cc(Cl)c(Cl)cc5[nH]4)nc(N4CCOCC4)nc32)cn1`, the % of control in test [6] stood at 11.7%.
For the compound `CNC(=O)Nc1ccc(-c2nc(N3CC4CCC(C3)O4)c3cnn(C4CCC5(CC4)OCCO5)c3n2)cc1`, the % of inhibition in [7] is 0%.
Turning to `CC[C@@H]1[C@H](F)C(=O)N[C@@H]1COc1nccc2cc(C(N)=O)c(OC)cc12` [ZIMLOVISERTIB], the % of inhibition is 0.6% in test [8]; 1.5% in [9] (at 0.01 µM); -2.5% in test [9] (at 0.04 µM); 7.8% in test [9] (at 0.2 µM); 6.7% in [9] (at 1 µM); -16.4% in test [9] (at 5 µM).
In [10], `N#Cc1cccc(-c2c[nH]c3ncnc(N4CCOCC4)c23)c1` returned a % of control of 7%.
